Earlier results as cited in US20050065175A1 (Xanodyne Pharmacal, Inc., priority 2003, published 2005).
Where a name gives a salt, the structure may show the parent alone.

How the values were obtained:
[1] = water and ethanol
[2] = orally administered tablets, absorption through GI tract

Structure (SMILES)	solubility [1]	bioavailability of oral transmucosal methadone (oral cavity fluid pH between about 7 and about 10)	oral bioavailability of methadone (oral cavity pH about 8 to about 9)	bioavailability via the oral transmucosal route (pH about 6.5 to about 6.9 (normal saliva))	bioavailability via the oral mucosa (pH of about 8.5)	portion of the orally bioavailable methadone in the bloodstream (within the first 2.5 minutes of delivery to the mucosal tissue)	time until methadone can be detected in blood plasma after ingestion [2]
CCC(=O)C(CC(C)N(C)C)(c1ccccc1)c1ccccc1 (stereo not shown) [Methadone hydrochloride]	soluble in water and ethanol	–	–	–	–	–	–
CCC(=O)C(CC(C)N(C)C)(c1ccccc1)c1ccccc1 (stereo not shown) [methadone]	–	50-75%	≤ 75%	about 34%	about 75%	50-70%	≤ 30 min
